Each structure is given as a SMILES string. Where two headings read alike, the source gives them in different places.

Experiment [1] relates to SW48 (E545K) PI3Kα mutant cells, P-PRAS40. The experiment can be described thus: Inhibition of P-PRAS40 in SW48 isogenic cells, helical domain mutant E545K (Example 902). To be noted: for EC50: Homo sapiens, SW48, 24 h, read-out: P-PRAS40 SW48 (E545K) EC50; for Fold Selectivity for SW48 (E545K) vs. SW48 (parental): EC50 ratio.
The target of the next experiment is PI3Kα (Homo sapiens (Human), UniProt P42336). Description: Biochemical inhibition of PI3K alpha (ADP-Glo lipid kinase assay, Example 901). To be noted: for Ki: geometric mean of minimum three experiments unless footnoted. The protocol: (§1) Reactions are carried out using the following conditions for each PI3K isoform as in Table 5.
(§2) All reactions are carried out at room temperature. […] The reaction is started by the addition of 2 μl ATP/MgCl2. The kinase reaction buffer contains 50 mM HEPES, 50 mM NaCl 3 mM MgCl2, 0.01% BSA, 1% DMSO, and enzyme and substrate concentrations as indicated in the above table. The reaction is stopped by the addition of 10 μL ADP-Glo reagent. Plates are read in a Perkin Elmer Envision system using luminescence mode. 10 point dose response curves are generated for each test compound. Ki values for each compound are determined using the Morrison Equation.

For experiment [2], the system named is SW48 (H1047R) PI3Kα mutant cells, P-PRAS40. Description: Inhibition of P-PRAS40 in SW48 isogenic cells, kinase domain mutant H1047R (Example 902). To be noted: for EC50: Homo sapiens, SW48, 24 h, read-out: P-PRAS40 SW48 (H1047R) EC50; for Fold Selectivity for SW48 (H1047R) vs. SW48 (parental): EC50 ratio.
Experiment [3] relates to SW48 (parental) PI3Kα wild-type cells, P-PRAS40. Description: Inhibition of P-PRAS40 in SW48 isogenic cells, PI3Kα wild-type parental (Example 902). To be noted: Homo sapiens, SW48, 24 h, read-out: P-PRAS40 SW48 (parental) EC50.
The next experiment addresses PI3Kδ (Homo sapiens (Human), UniProt O00329). The experiment can be described thus: Biochemical inhibition of PI3K delta (ADP-Glo lipid kinase assay, Example 901). To be noted: geometric mean of minimum three experiments unless footnoted. The procedure:
as §1, §2
Background: In ADP-Glo the light output rises with the ADP produced.

In the next experiment the target is PI3Kβ (Homo sapiens (Human), UniProt P42338). Description: Biochemical inhibition of PI3K beta (ADP-Glo lipid kinase assay, Example 901). To be noted: geometric mean of minimum three experiments. The procedure:
as §1, §2

In another experiment the target is PI3Kγ (Homo sapiens (Human), UniProt P48736). Description: Biochemical inhibition of PI3K gamma (ADP-Glo lipid kinase assay, Example 901). To be noted: geometric mean of minimum three experiments. The protocol: as §1, §2
In experiment [4] the test system is CD69 expression in CD19+ CD27− B cells. Description: B-cell a-IgM CD69 expression, human whole blood assay (Example 906). The experiment is classed as cell-based. To be noted: human whole-blood IC50 multiplied by measured human fu, read-out: B-cell a-IgM CD69 expression IC50, plasma-protein-binding corrected. The protocol: The expression of CD69 in B-cells resultant from a-IgM treatment is believed to be driven by signaling through PI3Kδ (delta).
Human whole blood was dispensed into 96-deep well plates at 100 μl per well. Compounds were diluted in DMSO to generate the desired stock concentrations and then further diluted in PBS to the desired working concentration and added in a volume of 5.5 μL per well. Samples were then incubated for 1 hour at 37° C. under 5% CO2 before the addition of 5 μg (10 μl per well) of Goat anti IgM F(ab′)2 (Southern Biotech, AL), and incubated for 18 hours at 37° C. under 5% CO2. All treatments were tested in duplicate.
In addition, human whole blood from each donor was stained with isotype-matched fluorescent control antibodies. After the addition of the appropriate antibody cocktail the whole blood samples were stained for 30 minutes in the dark and then lysed using BD Pharm Lysis (BD Bioscience, NJ). The resulting samples were then washed with FACS Buffer (Phosphate Buffered Saline (Ca:Mg++ free), 1 mM EDTA, 25 mM HEPES pH 7.0, 1% Fetal Bovine Serum (Heat-Inactivated) and fixed in FACS Buffer supplemented with 0.1% Formaldehyde (Polysciences Inc, PA) and 0.1% Pluronic F-68 (Sigma, MO). Data were acquired using a BD LSR-II (BD Biosciences) with BD FACSDiva software.
Cells were assessed by flow cytometry for levels of CD19, CD27 and CD69 using BD FACSDiva Software and the CD69 MFI-Mean of the CD19^+ CD27^− lymphocyte population was determined.

Chain of PI3Kα (P42336 whole entry, canonical isoform): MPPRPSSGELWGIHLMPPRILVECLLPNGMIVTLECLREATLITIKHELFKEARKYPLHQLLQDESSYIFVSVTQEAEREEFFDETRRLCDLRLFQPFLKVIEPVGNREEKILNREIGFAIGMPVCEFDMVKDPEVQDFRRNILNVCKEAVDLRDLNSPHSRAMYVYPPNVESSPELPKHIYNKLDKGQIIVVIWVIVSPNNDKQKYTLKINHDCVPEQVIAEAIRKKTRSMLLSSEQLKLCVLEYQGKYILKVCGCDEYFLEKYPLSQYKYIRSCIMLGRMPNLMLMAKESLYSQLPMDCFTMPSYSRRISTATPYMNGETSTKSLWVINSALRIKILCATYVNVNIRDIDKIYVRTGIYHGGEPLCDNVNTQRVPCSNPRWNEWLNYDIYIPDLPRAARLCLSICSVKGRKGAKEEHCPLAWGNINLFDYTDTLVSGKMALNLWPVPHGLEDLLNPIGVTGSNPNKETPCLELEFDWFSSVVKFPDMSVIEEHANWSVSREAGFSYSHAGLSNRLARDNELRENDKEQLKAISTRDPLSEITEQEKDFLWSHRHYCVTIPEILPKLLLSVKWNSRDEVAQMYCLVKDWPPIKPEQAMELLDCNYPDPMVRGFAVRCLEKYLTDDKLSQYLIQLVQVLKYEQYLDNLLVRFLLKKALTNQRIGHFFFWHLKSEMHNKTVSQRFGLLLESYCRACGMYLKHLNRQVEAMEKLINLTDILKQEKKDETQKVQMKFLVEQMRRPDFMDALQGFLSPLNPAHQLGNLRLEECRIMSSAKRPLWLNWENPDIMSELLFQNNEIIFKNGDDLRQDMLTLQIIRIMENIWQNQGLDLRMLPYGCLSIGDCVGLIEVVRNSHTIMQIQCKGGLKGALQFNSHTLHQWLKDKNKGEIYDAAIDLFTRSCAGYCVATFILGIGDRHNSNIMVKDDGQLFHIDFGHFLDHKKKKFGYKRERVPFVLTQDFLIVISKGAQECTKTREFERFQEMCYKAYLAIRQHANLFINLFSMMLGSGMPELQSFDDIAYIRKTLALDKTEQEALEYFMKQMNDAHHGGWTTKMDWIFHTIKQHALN
Chain of PI3Kα (P27986 whole entry partner, canonical isoform): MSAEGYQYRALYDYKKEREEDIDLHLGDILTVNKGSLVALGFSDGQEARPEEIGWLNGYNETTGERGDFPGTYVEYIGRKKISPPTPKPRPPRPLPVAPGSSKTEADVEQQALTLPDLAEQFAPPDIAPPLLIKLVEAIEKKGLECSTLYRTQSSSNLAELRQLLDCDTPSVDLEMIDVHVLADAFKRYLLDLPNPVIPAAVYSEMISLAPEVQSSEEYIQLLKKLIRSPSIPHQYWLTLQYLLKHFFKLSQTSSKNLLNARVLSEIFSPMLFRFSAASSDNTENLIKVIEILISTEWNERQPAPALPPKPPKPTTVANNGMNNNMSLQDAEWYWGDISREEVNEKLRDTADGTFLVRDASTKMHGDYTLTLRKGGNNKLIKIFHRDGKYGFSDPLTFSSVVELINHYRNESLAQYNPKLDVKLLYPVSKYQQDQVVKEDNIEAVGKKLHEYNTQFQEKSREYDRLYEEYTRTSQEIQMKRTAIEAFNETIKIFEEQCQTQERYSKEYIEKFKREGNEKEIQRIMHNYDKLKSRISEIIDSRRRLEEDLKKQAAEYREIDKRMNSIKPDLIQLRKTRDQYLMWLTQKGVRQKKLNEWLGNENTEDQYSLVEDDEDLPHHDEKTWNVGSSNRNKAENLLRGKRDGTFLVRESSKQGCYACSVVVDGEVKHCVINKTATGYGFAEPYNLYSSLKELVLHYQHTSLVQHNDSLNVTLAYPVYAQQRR
Chain of PI3Kδ (O00329 whole entry): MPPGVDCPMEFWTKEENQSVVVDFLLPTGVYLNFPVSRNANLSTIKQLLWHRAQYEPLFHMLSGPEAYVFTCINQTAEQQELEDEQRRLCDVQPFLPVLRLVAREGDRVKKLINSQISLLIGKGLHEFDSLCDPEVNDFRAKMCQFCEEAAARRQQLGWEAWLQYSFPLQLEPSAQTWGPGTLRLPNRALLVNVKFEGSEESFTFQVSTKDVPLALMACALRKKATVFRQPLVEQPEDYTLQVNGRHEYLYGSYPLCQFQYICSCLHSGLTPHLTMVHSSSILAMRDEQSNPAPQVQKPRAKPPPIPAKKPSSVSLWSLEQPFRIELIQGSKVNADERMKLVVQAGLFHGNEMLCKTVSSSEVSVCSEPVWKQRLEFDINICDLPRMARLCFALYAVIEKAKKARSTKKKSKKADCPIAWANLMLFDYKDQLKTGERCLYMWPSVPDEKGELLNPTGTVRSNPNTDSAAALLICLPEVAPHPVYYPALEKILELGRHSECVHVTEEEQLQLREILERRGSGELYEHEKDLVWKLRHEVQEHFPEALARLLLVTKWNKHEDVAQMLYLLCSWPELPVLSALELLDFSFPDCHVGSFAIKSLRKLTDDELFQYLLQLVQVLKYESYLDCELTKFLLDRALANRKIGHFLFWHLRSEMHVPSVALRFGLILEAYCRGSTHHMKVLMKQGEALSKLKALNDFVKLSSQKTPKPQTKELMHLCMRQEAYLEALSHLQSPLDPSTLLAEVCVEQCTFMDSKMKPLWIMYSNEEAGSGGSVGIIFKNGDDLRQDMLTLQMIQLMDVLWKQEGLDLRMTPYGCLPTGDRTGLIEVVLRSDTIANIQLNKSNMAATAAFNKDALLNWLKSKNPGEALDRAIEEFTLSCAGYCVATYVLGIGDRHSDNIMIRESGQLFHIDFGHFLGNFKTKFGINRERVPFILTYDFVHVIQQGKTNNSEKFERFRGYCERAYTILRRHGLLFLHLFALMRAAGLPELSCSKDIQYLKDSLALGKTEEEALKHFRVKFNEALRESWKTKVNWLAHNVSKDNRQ
Chain of PI3Kδ (P27986 whole entry partner): as the sequence (P27986 whole entry partner, canonical isoform) above
Chain of PI3Kγ (P48736 whole entry): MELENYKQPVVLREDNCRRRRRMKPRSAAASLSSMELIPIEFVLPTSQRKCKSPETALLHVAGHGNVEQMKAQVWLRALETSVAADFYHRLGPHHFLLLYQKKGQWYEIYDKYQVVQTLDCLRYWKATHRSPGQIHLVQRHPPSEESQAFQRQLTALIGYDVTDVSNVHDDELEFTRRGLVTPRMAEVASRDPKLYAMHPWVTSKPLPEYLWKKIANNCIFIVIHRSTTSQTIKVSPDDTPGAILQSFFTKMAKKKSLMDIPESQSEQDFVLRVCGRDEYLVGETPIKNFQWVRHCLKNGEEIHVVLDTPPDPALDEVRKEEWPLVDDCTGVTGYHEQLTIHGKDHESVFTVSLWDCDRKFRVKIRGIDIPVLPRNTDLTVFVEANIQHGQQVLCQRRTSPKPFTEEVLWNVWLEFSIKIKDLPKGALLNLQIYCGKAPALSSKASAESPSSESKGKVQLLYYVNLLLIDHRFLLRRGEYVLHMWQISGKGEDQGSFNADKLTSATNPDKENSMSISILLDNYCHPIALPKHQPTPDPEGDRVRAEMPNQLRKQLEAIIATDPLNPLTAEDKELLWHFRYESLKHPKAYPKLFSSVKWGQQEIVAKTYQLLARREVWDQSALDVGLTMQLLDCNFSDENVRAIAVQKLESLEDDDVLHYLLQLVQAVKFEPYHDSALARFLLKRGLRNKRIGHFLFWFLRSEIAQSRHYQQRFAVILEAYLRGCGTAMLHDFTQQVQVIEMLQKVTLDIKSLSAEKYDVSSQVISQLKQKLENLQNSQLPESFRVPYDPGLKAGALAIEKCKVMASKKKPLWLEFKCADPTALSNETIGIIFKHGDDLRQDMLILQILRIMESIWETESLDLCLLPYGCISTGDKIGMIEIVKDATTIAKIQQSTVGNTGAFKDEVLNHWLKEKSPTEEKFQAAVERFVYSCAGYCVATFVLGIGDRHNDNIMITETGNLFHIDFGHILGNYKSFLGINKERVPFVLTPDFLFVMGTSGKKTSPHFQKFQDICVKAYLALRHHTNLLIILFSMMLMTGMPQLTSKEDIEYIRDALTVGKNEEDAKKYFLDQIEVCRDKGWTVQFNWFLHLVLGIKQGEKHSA
Chain of PI3Kβ (P42338 whole entry): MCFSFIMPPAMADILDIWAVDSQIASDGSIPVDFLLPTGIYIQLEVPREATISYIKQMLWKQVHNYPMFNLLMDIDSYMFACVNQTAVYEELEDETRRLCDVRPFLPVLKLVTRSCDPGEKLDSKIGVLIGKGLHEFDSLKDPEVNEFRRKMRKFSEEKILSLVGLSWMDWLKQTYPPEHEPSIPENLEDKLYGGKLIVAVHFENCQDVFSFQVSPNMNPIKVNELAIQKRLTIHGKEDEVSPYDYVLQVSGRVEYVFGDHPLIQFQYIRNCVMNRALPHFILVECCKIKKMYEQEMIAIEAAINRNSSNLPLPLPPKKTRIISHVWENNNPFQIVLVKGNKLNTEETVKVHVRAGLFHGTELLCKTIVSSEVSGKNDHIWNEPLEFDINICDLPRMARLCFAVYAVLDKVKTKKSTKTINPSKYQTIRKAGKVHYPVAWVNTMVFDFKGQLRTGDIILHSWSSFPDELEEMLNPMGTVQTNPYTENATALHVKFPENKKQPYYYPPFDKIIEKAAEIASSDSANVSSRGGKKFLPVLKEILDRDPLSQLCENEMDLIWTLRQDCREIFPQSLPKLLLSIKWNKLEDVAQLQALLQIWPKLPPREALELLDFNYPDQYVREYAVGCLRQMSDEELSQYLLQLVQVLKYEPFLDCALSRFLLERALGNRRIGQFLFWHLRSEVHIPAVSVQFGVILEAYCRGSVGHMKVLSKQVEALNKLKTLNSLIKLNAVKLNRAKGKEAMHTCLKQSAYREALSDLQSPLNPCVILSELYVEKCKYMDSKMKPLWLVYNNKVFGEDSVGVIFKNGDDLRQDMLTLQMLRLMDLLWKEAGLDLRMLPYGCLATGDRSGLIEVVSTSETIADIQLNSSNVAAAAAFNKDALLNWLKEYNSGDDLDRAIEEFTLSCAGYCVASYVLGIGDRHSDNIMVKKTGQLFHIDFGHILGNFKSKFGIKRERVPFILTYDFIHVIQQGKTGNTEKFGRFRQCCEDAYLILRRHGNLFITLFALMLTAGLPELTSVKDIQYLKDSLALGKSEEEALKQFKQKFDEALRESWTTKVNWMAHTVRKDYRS
Chain of PI3Kβ (P27986 whole entry partner): as the sequence (P27986 whole entry partner, canonical isoform) above

For `CC(C)n1ncnc1-c1cn2c(n1)-c1ccc(OC(C(N)=O)C3CC3)cc1OCC2` (single isomer, unassigned) [549 (separated stereoisomer 1), reference compound], the results for the EC50 in experiment [1], in experiment [2] and in experiment [3] were 10.5 nM, 14.7 nM and 11.9 nM, respectively. Further, on PI3Kα, the affinity corresponds to a Ki of 0.56 nM.
For `CC(C)n1ncnc1-c1cn2c(n1)-c1ccc(OC(C(N)=O)C3CC3)cc1OCC2` (single isomer, unassigned) [549 (separated stereoisomer 2), reference compound], affinity at PI3Kα was put at a Ki of 5.66 nM. This counts as single-digit nanomolar.
On to `CC(C)(O)Cn1cc(-c2ccc3c(c2)OCCc2sc(N4C(=O)OCC4(C)C)nc2-3)cn1` [356 (U.S. Pat. No. 8,263,633), reference compound], for which the “Selectivity for PI3Kα vs. PI3Kδ” value on PI3Kα (Ki ratio delta/alpha, fold) was 0.95.
Regarding `C[C@@H]1COC(=O)N1c1cn2c(n1)-c1ccc(N[C@H](C(N)=O)C3CCC3)cc1OCC2` [Compound 102, (S)-2-cyclobutyl-2-((2-((R)-4-methyl-2-oxooxazolidin-3-yl)-5,6-dihydrobenzo[f]imidazo[1,2-d][1,4]oxazepin-9-yl)amino)acetamide], the “Fold Selectivity for SW48 (E545K) vs. SW48 (parental)” value in experiment [1] is 2.5 (p = 0.002). For the same molecule, the EC50 in experiment [1] was found to be 33.5 nM; in experiment [2] it was 35.8 nM; in experiment [3] it was 84.9 nM. The “Selectivity for PI3Kα vs. PI3K-β” value at PI3Kα (Ki ratio beta/alpha, fold) is recorded as more than 1054. In addition, at PI3Kα (Ki ratio delta/alpha, fold), the “Selectivity for PI3Kα vs. PI3Kδ” value stood at 301. The “Selectivity for PI3Kα vs. PI3Kγ” value at PI3Kα (Ki ratio gamma/alpha, fold) stood at 746. For the same molecule, the Ki on PI3Kα is 0.949 nM; on PI3Kδ, 286 nM; on PI3Kβ, more than 1000 nM; on PI3Kγ, 708 nM. Also, the “Fold Selectivity for SW48 (H1047R) vs. SW48 (parental)” value in experiment [2] is on record as 2.4 (p = 0.001).
As to `CC(C)n1ncnc1-c1cn2c(n1)-c1ccc(N3CCC[C@H]3C(N)=O)cc1OCC2` [Compound 375, reference compound], the “Selectivity for PI3Kα vs. PI3Kδ” value at PI3Kα was found to be 21.7. Also, the Ki at PI3Kδ amounted to 0.417 nM.
Regarding `NC(=O)[C@@H]1CCCN1c1ccc2c(c1)OCCn1cc(-c3ncnn3CC(F)(F)F)nc1-2` [Compound 469, reference compound], the “Selectivity for PI3Kα vs. PI3Kδ” value at PI3Kα (Ki ratio delta/alpha, fold) is 19.3. Besides, the values for the Ki on PI3Kα and at PI3Kδ were less than 0.02 nM and 0.39 nM, respectively.
Turning to `C[C@H](Oc1ccc2c(c1)OCCn1cc(-c3ncnn3CC(F)(F)F)nc1-2)C(N)=O` [Compound 486, reference compound], the “Selectivity for PI3Kα vs. PI3Kδ” value on PI3Kα (Ki ratio delta/alpha, fold) is reported as 13.4.
As for `CC(C)C(Oc1ccc2c(c1)OCCn1cc(-c3ncnn3CC(F)(F)F)nc1-2)C(N)=O` (stereo not drawn) [Compound 501, reference compound], on PI3Kα (Ki ratio delta/alpha, fold), the “Selectivity for PI3Kα vs. PI3Kδ” value is listed as 6.1. In addition, the figures for the Ki at PI3Kα and at PI3Kδ were 3.56 nM and 21.8 nM, respectively.
With `C[C@H](Nc1ccc2c(c1)OCCn1cc(-c3ncnn3CC(F)(F)F)nc1-2)C(N)=O` [Compound 529, reference compound], in experiment [1], the “Fold Selectivity for SW48 (E545K) vs. SW48 (parental)” value is 2.2. Moreover, the EC50 in experiment [1] is 0.8 nM; in experiment [2] it was 0.9 nM; in experiment [3], 1.6 nM. For the same molecule, at PI3Kα (Ki ratio delta/alpha, fold), the “Selectivity for PI3Kα vs. PI3Kδ” value was found to be 46.9. Further, the figures for the Ki on PI3Kα and on PI3Kδ were 0.023 nM and 1.05 nM, respectively. Moreover, the “Fold Selectivity for SW48 (H1047R) vs. SW48 (parental)” value in experiment [2] amounted to 2.0.
Turning to `CC(C)n1ncnc1-c1cn2c(n1)-c1ccc(N(C)[C@@H](C)C(N)=O)cc1OCC2` [Compound 550, reference compound], at PI3Kα (Ki ratio delta/alpha, fold), the “Selectivity for PI3Kα vs. PI3Kδ” value came to 19.4. Besides, the inhibition constant Ki on PI3Kα amounted to 0.107 nM; on PI3Kδ, 1.96 nM.
As to `CC[C@H](Nc1ncnc2nc[nH]c12)c1nc2cccc(F)c2c(=O)n1-c1ccccc1` [idelalisib, 5-fluoro-3-phenyl-2-[(1S)-1-(7H-purin-6-ylamino)propyl]-4(3H)-quinazolinone], in experiment [4], the IC50 was found to be 48 nM.

As usually defined, the EC50 is the concentration needed to bring the measured effect to its halfway point. What is called Ki is the dissociation constant of the complex between target and ligand, obtained from inhibition or displacement. Low values mean higher affinity, high ones lower affinity. For orientation: IC50 means the point on the concentration scale where inhibition reaches its midpoint.
